Results from US7731960B2, “Antibodies that inhibit transport activity of peptide transporters” (Chugai Seiyaku Kabushiki Kaisha, priority 2003, dated 2010).

Experiments:
Type in all cases: cell-based
[1] = target: T1, human PepT1 (Homo sapiens, UniProt P46059); assay: [14C] glycylsarcosine uptake into BaF3/PepT1 cells; conditions: FIG. 2
T1 sequence (P46059 1-708): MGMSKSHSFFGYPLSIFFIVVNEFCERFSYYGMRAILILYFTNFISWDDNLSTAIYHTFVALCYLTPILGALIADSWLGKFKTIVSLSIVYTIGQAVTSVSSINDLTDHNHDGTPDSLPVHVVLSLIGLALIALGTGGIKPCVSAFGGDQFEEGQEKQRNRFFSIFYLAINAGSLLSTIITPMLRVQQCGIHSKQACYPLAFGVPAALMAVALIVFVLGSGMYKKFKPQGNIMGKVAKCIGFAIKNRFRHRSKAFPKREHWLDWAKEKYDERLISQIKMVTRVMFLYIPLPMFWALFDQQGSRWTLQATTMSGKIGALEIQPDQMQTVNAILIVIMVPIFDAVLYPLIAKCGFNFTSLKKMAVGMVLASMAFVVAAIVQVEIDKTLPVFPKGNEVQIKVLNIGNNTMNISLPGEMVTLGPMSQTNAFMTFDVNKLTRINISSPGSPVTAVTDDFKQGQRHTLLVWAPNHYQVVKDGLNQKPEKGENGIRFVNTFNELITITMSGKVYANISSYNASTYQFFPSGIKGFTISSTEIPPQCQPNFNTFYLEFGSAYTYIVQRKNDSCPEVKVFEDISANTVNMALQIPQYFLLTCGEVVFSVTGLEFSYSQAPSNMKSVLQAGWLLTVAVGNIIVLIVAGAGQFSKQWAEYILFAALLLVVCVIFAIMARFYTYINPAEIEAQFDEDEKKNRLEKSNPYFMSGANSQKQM
Description: FIG. 2 is a graph showing the PepT1 inhibiting ability of AT-264 in BaF3 cells.
The ability of AT-264 to inhibit PepT1 was examined by forcedly expressing human PepT1 in mouse bone marrow-derived BaF3 cells (hereinafter abbreviated as BaF3/PepT1).

[2] = system: human pancreatic cancer cell line AsPC-1; assay: Cell growth inhibition of AsPC-1, MTS assay after six days of culture
Protocol: FIG. 3 is a graph showing the cell growth inhibitory effect of AT-264 against human pancreatic cancer cell line AsPC-1. The data are shown as an average±S.D. (n=3 to 4).
(§1) AT-264 was dissolved in RPMI1640-10 mM Hepes (hereinafter, abbreviated as ‘the medium’) containing 0.5% ethanol and 0.5% DMSO to prepare 2.5 mM AT-264 solution. Then, this solution was diluted with the medium to prepare 0.625 mM and 0.0625 mM AT-264 solutions.
A 5×10^4 cells/mL solution of human pancreatic cancer cell line AsPC-1 was prepared using a medium containing 50% FBS. This suspension was seeded at 40 μL/well (2×10^3 cells) onto a 96-well plate pre-coated with Collagen type I, and 160 μL of the AT-264 solution was added. This was cultured for six days in a CO2 incubator (on the second day of culture, 100 units/mL penicillin and 0.1 mg/mL streptomycin were added). On the sixth day of culture, the number of viable cells was quantified by MTS assay.

[3] = target: T2, human PepT2 (Homo sapiens, UniProt Q16348); assay: [3H] glycylsarcosine uptake into BaF3/PepT2 cells; conditions: FIG. 4
T2 construct: expressed in transfected cells; host or cells: murine bone marrow-derived BaF3 cells
T2 sequence (Q16348 1-729): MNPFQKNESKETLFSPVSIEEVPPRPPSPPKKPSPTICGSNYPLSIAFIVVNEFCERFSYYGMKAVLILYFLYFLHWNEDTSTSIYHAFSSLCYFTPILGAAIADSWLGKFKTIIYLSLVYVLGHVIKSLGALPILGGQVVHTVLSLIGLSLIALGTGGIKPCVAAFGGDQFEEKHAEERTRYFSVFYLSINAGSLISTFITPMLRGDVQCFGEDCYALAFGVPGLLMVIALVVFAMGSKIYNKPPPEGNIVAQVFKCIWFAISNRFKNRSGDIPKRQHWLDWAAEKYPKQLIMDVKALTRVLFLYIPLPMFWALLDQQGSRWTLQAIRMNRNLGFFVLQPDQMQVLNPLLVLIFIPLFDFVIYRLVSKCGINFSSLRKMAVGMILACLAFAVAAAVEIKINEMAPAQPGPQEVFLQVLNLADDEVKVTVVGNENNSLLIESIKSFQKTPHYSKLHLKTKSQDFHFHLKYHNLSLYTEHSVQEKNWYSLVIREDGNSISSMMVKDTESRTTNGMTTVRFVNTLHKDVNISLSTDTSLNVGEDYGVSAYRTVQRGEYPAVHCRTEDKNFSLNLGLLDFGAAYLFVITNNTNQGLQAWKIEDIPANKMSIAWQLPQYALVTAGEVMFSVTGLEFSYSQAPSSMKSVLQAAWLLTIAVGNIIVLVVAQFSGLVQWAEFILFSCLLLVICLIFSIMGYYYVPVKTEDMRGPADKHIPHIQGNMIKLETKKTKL
Description: FIG. 4 is a graph showing the PepT2 inhibiting ability of AT-264 in BaF3/PepT2. The data are shown as an average±S.D. (n=3 to 4).
The ability of AT-264 to inhibit PepT2 was examined using a murine bone marrow-derived cell line BaF3 in which human PepT2 is forcedly expressed (hereinafter, abbreviated as BaF3/PepT2).

[4] = system: human pancreatic cancer cell line BxPC-3; assay: Cell growth inhibition of BxPC-3, MTS assay after six days of culture
Protocol: FIG. 5 is a graph showing the cell growth inhibitory effect of AT-264 against human pancreatic cancer cell line BxPC-3. The data are shown as an average±S.D. (n=6).
as §1, with “Hepes with 100 units/mL penicillin and 0.1 mg/mL streptomycin” for “Hepes”, “Furthermore,” for “Then,”
5×10^4 cells/mL solution of BxPC-3 was prepared using the medium containing 50% FBS. This suspension was seeded at 40 μL/well (2×10^3 cells) onto a 96-well plate pre-coated with Collagen type I, and 160 μL of AT-264 solution was added. This was cultured for six days in a CO2 incubator, and on the sixth day of culture, the number of viable cells was quantified by MTS assay.

N=C(N)c1cccc(CC(NS(=O)(=O)NCc2cccc3ccccc23)C(=O)N2CCCCC2C(=O)O)c1 (centres unmarked) [AT-264]
uptake of [14C] glycylsarcosine into cells [1]: inhibited in a concentration-dependent manner
cell growth inhibition ([2]; AsPC-1, 0.5 mM AT-264, six days, MTS assay): slight
morphological changes under the microscope ([2]; AsPC-1 in the presence of AT-264): not observed
inhibition at 2000 µM ([2]; Homo sapiens, ASPC1, 144 h, AsPC-1, 2 mM AT-264, six days, MTS assay): ~30%
uptake of [3H] glycylsarcosine into cells [3]: inhibited in a concentration-dependent manner
morphological changes under the microscope ([4]; BxPC-3 in the presence of AT-264): not observed
inhibition at 500 µM ([4]; Homo sapiens, 144 h, BxPC-3, 0.5 mM AT-264, six days, MTS assay): ~20%
inhibition at 2000 µM ([4]; Homo sapiens, 144 h, BxPC-3, 2 mM AT-264, six days, MTS assay): ~75%
